Assay results from the Kinase Knowledgebase extract (Sharma et al. 2016).

Biological target: CDK2 (UniProt P24941)
Assay: Enzyme Assay
Settings: concentration not given here

| SMILES | inhibition [%] |
| --- | --- |
| CC(CCc1ccccc1)NC(=O)c1ccc(Nc2nc(N)c(C(=O)c3c(F)cccc3F)s2)cc1 (stereo unspecified) | -6 |
| Nc1nc(Nc2ccc(C(=O)NCCc3c(Cl)cccc3Cl)cc2)sc1C(=O)c1c(F)cccc1F | -21 |
| CSc1ccc(NC(=O)c2ccc(Nc3nc(N)c(C(=O)c4c(F)cccc4F)s3)cc2)cc1 | -25 |
| Cc1cccc(CN(C)C(=O)c2ccc(Nc3nc(N)c(C(=O)c4c(F)cccc4F)s3)cc2)n1 | -1 |
| Nc1nc(Nc2ccc(C(=O)NCC3CC3)cc2)sc1C(=O)c1c(F)cccc1F | 0 |
| CCC(C)CN(CCO)C(=O)c1ccc(Nc2nc(N)c(C(=O)c3c(F)cccc3F)s2)cc1 (stereo unspecified) | -11 |
| Nc1nc(Nc2ccc(C(=O)NCCCN3CCCC3=O)cc2)sc1C(=O)c1c(F)cccc1F | -23 |
| C=CCN(C(=O)c1ccc(Nc2nc(N)c(C(=O)c3c(F)cccc3F)s2)cc1)C1CCCCC1 | -15 |
| CC(=O)c1ccc(NC(=O)c2ccc(Nc3nc(N)c(C(=O)c4c(F)cccc4F)s3)cc2)cc1 | -5 |
| Cc1cc(NC(=O)c2ccc(Nc3nc(N)c(C(=O)c4c(F)cccc4F)s3)cc2)ccc1C(C)C | -5 |
| Nc1nc(Nc2ccc(C(=O)NCCCCCCO)cc2)sc1C(=O)c1c(F)cccc1F | -5 |
| COc1ccc(CCN(C)C(=O)c2ccc(Nc3nc(N)c(C(=O)c4c(F)cccc4F)s3)cc2)cc1OC | -3 |
| Nc1nc(Nc2ccc(O)cc2)sc1C(=O)c1c(F)cccc1F | 23 |
| CC(=O)N[C@@H]1CCN(C(=O)c2ccc(Nc3nc(N)c(C(=O)c4c(F)cccc4F)s3)cc2)C1 | -7 |
| COC(CN(C)C(=O)c1ccc(Nc2nc(N)c(C(=O)c3c(F)cccc3F)s2)cc1)OC | -7 |
| CCCN(CCc1ccccn1)C(=O)c1ccc(Nc2nc(N)c(C(=O)c3c(F)cccc3F)s2)cc1 | -12 |
| COCCN(C)C(=O)c1ccc(Nc2nc(N)c(C(=O)c3c(F)cccc3F)s2)cc1 | -16 |
| Nc1nc(Nc2ccc(C(=O)Nc3ccc(Cl)cc3)cc2)sc1C(=O)c1c(F)cccc1F | -10 |
| Nc1nc(Nc2ccc(C(=O)Nc3cccc(F)c3)cc2)sc1C(=O)c1c(F)cccc1F | -6 |
| Nc1nc(Nc2ccc(C(=O)N3CCC(CO)CC3)cc2)sc1C(=O)c1c(F)cccc1F | -14 |
| Cc1ccc(CCNC(=O)c2ccc(Nc3nc(N)c(C(=O)c4c(F)cccc4F)s3)cc2)cc1 | 14 |
| Nc1nc(Nc2ccc(C(=O)NCCC3OCCO3)cc2)sc1C(=O)c1c(F)cccc1F | -10 |
| CC1CC(C)CN(C(=O)c2ccc(Nc3nc(N)c(C(=O)c4c(F)cccc4F)s3)cc2)C1 (stereo unspecified) | -33 |

| SMILES | inhibition [%] |
| --- | --- |
| CCN(C)C(=O)c1ccc(Nc2nc(N)c(C(=O)c3c(F)cccc3F)s2)cc1 | -12 |
| CCCCN(CCC#N)C(=O)c1ccc(Nc2nc(N)c(C(=O)c3c(F)cccc3F)s2)cc1 | 4 |
| CC(CNC(=O)c1ccc(Nc2nc(N)c(C(=O)c3c(F)cccc3F)s2)cc1)N(C)C (stereo unspecified) | -7 |
| Cc1cc(NC(=O)c2ccc(Nc3nc(N)c(C(=O)c4c(F)cccc4F)s3)cc2)ccc1F | -1 |
| Nc1nc(Nc2ccc(C(=O)Nc3ccc(Cl)nc3)cc2)sc1C(=O)c1c(F)cccc1F | -9 |
| Nc1nc(Nc2ccc(C(=O)Nc3ccc(Nc4ccccc4)cc3)cc2)sc1C(=O)c1c(F)cccc1F | -6 |
| CN(CCc1ccccc1)C(=O)c1ccc(Nc2nc(N)c(C(=O)c3c(F)cccc3F)s2)cc1 | -12 |
| CCOc1ccccc1CCNC(=O)c1ccc(Nc2nc(N)c(C(=O)c3c(F)cccc3F)s2)cc1 | -19 |
| COCCN(CCOC)C(=O)c1ccc(Nc2nc(N)c(C(=O)c3c(F)cccc3F)s2)cc1 | -4 |
| Nc1nc(Nc2ccc(C(=O)NCC(O)CO)cc2)sc1C(=O)c1c(F)cccc1F (stereo unspecified) | -2 |
| CN(C)CCCCNC(=O)c1ccc(Nc2nc(N)c(C(=O)c3c(F)cccc3F)s2)cc1 | -4 |
| CCN(CC)CCCN(C)C(=O)c1ccc(Nc2nc(N)c(C(=O)c3c(F)cccc3F)s2)cc1 | -27 |
| CCCCN(CCCC)C(=O)c1ccc(Nc2nc(N)c(C(=O)c3c(F)cccc3F)s2)cc1 | -7 |
| CCCN(CC1CC1)C(=O)c1ccc(Nc2nc(N)c(C(=O)c3c(F)cccc3F)s2)cc1 | -3 |
| Nc1nc(Nc2ccc(C(=O)NCCc3cccc(F)c3)cc2)sc1C(=O)c1c(F)cccc1F | -6 |
| COCCCNC(=O)c1ccc(Nc2nc(N)c(C(=O)c3c(F)cccc3F)s2)cc1 | -24 |
| Nc1nc(Nc2ccc(C(=O)N3CCN(CCCO)CC3)cc2)sc1C(=O)c1c(F)cccc1F | -14 |
| COC(=O)c1ccccc1NC(=O)c1ccc(Nc2nc(N)c(C(=O)c3c(F)cccc3F)s2)cc1 | -4 |
| CCCCN(CCCCO)C(=O)c1ccc(Nc2nc(N)c(C(=O)c3c(F)cccc3F)s2)cc1 | -12 |
| Nc1nc(Nc2ccc(C(=O)NCCCCCO)cc2)sc1C(=O)c1c(F)cccc1F | -4 |
| CN(Cc1ccccc1Cl)C(=O)c1ccc(Nc2nc(N)c(C(=O)c3c(F)cccc3F)s2)cc1 | -30 |
| Cc1cccc(NC(=O)c2ccc(Nc3nc(N)c(C(=O)c4c(F)cccc4F)s3)cc2)c1 | -7 |
| Cc1nccc(-c2cccc(NC(=O)c3ccc(Nc4nc(N)c(C(=O)c5c(F)cccc5F)s4)cc3)c2)n1 | -40 |

| SMILES | inhibition [%] |
| --- | --- |
| Nc1nc(Nc2ccc(C(=O)N3CCSC3)cc2)sc1C(=O)c1c(F)cccc1F | -3 |
| CC(C)CCCC(C)NC(=O)c1ccc(Nc2nc(N)c(C(=O)c3c(F)cccc3F)s2)cc1 (stereo unspecified) | 0 |
| Nc1nc(Nc2ccc(C(=O)NCCCCO)cc2)sc1C(=O)c1c(F)cccc1F | -12 |
| CC(C)N(Cc1ccccc1)c1ccc(NC(=O)c2ccc(Nc3nc(N)c(C(=O)c4c(F)cccc4F)s3)cc2)cc1 | -4 |
| CCCCC(CC)NC(=O)c1ccc(Nc2nc(N)c(C(=O)c3c(F)cccc3F)s2)cc1 (stereo unspecified) | -30 |
| Nc1nc(Nc2ccc(CCO)cc2)sc1C(=O)c1c(F)cccc1F | 19 |
| CC(C)C[C@@H](CO)NC(=O)c1ccc(Nc2nc(N)c(C(=O)c3c(F)cccc3F)s2)cc1 | -16 |
| CN(CC(O)CO)C(=O)c1ccc(Nc2nc(N)c(C(=O)c3c(F)cccc3F)s2)cc1 (stereo unspecified) | 0 |
| Nc1nc(Nc2ccc(C(=O)NCCOCCO)cc2)sc1C(=O)c1c(F)cccc1F | -9 |
| C[C@@H](NC(=O)c1ccc(Nc2nc(N)c(C(=O)c3c(F)cccc3F)s2)cc1)C1CCCCC1 | -18 |
| N#CCCSc1ccccc1NC(=O)c1ccc(Nc2nc(N)c(C(=O)c3c(F)cccc3F)s2)cc1 | -14 |
| CCOCCNC(=O)c1ccc(Nc2nc(N)c(C(=O)c3c(F)cccc3F)s2)cc1 | -4 |
| COc1ccc(C(=O)NC(=O)c2ccc(Nc3nc(N)c(C(=O)c4c(F)cccc4F)s3)cc2)cc1N | 15 |
| CC(C)(C)C1CCC(NC(=O)c2ccc(Nc3nc(N)c(C(=O)c4c(F)cccc4F)s3)cc2)CC1 (stereo unspecified) | -23 |
| Nc1nc(Nc2ccc(C(=O)Nc3ccon3)cc2)sc1C(=O)c1c(F)cccc1F | -1 |
| CCCN(C(=O)c1ccc(Nc2nc(N)c(C(=O)c3c(F)cccc3F)s2)cc1)C(C)CC (stereo unspecified) | -16 |
| Nc1nc(Nc2ccc(C(=O)Nc3cccc(Br)c3)cc2)sc1C(=O)c1c(F)cccc1F | -8 |
| C#CCN(C)C(=O)c1ccc(Nc2nc(N)c(C(=O)c3c(F)cccc3F)s2)cc1 | -14 |
| Nc1nc(Nc2ccc(C(=O)N3CCOCC3)cc2)sc1C(=O)c1c(F)cccc1F | -4 |
| CC(C)NC(=O)c1ccc(Nc2nc(N)c(C(=O)c3c(F)cccc3F)s2)cc1 | -10 |
| COc1ccc(CNC(=O)c2ccc(Nc3nc(N)c(C(=O)c4c(F)cccc4F)s3)cc2)cc1OC | -2 |
| CN(Cc1ccco1)C(=O)c1ccc(Nc2nc(N)c(C(=O)c3c(F)cccc3F)s2)cc1 | -3 |
| Nc1nc(Nc2ccc(C(=O)N3CCN(c4ccncc4)CC3)cc2)sc1C(=O)c1c(F)cccc1F | -1 |

| SMILES | inhibition [%] |
| --- | --- |
| C=CCN(CC=C)C(=O)c1ccc(Nc2nc(N)c(C(=O)c3c(F)cccc3F)s2)cc1 | -20 |
| CCN(CC)CCN(C)C(=O)c1ccc(Nc2nc(N)c(C(=O)c3c(F)cccc3F)s2)cc1 | -9 |
| Nc1nc(Nc2ccc(C(=O)NCCc3ccc(Cl)cc3)cc2)sc1C(=O)c1c(F)cccc1F | 0 |
| Nc1nc(Nc2ccc(C(=O)NC3CC3)cc2)sc1C(=O)c1c(F)cccc1F | -5 |
| CCCCN(Cc1ccccc1)C(=O)c1ccc(Nc2nc(N)c(C(=O)c3c(F)cccc3F)s2)cc1 | -17 |
| CC(=O)Nc1ccccc1C(=O)c1sc(Nc2ccc(C(=O)NC[C@@H]3CCCN3C)cc2)nc1N | 0 |
| Cc1ccc(NC(=O)c2ccc(Nc3nc(N)c(C(=O)c4c(F)cccc4F)s3)cc2)cc1Cl | -1 |
| Nc1nc(Nc2ccc(C(=O)Nc3cccc(OC(F)(F)F)c3)cc2)sc1C(=O)c1c(F)cccc1F | -31 |
| CCCCN(CCO)C(=O)c1ccc(Nc2nc(N)c(C(=O)c3c(F)cccc3F)s2)cc1 | -7 |
| CCCCN(CC#N)C(=O)c1ccc(Nc2nc(N)c(C(=O)c3c(F)cccc3F)s2)cc1 | -1 |
| Cc1cccc(N2CCN(C(=O)c3ccc(Nc4nc(N)c(C(=O)c5c(F)cccc5F)s4)cc3)CC2C)c1 (stereo unspecified) | -23 |
| CCN(CCO)C(=O)c1ccc(Nc2nc(N)c(C(=O)c3c(F)cccc3F)s2)cc1 | -16 |
| Nc1nc(Nc2ccc(C(=O)NCCc3ccncc3)cc2)sc1C(=O)c1c(F)cccc1F | -11 |
| Nc1nc(Nc2ccc(C(=O)Nc3ccc(Cl)cc3CO)cc2)sc1C(=O)c1c(F)cccc1F | -11 |
| Nc1nc(Nc2ccc(C(=O)NCCc3ccccc3)cc2)sc1C(=O)c1c(F)cccc1F | -19 |
| CCOc1cccc(NC(=O)c2ccc(Nc3nc(N)c(C(=O)c4c(F)cccc4F)s3)cc2)c1 | -7 |
| N#CCCN(Cc1ccccc1)C(=O)c1ccc(Nc2nc(N)c(C(=O)c3c(F)cccc3F)s2)cc1 | 0 |
| N#CCCN(CC1CCCO1)C(=O)c1ccc(Nc2nc(N)c(C(=O)c3c(F)cccc3F)s2)cc1 (stereo unspecified) | -5 |
| CC[C@H](C)[C@@H](CO)NC(=O)c1ccc(Nc2nc(N)c(C(=O)c3c(F)cccc3F)s2)cc1 | -7 |
| CCN(C(=O)c1ccc(Nc2nc(N)c(C(=O)c3c(F)cccc3F)s2)cc1)C1CCCCC1 | -10 |
| CC(C)C(CO)NC(=O)c1ccc(Nc2nc(N)c(C(=O)c3c(F)cccc3F)s2)cc1 (stereo unspecified) | -3 |
| Nc1nc(Nc2ccc(C(=O)N[C@H](CO)Cc3ccccc3)cc2)sc1C(=O)c1c(F)cccc1F | -14 |
